These results are taken from patent US20100105655A1, “NOVEL COMPOUNDS 515” (ASTRAZENECA AB, priority 2008, published 2010).

pIC50: −log10 of the molar value.

The target in this experiment is T1, IGFR kinase (Homo sapiens, UniProt P08069).
T1 construct: purchased Millipore
T1 sequence (P08069 31-1367): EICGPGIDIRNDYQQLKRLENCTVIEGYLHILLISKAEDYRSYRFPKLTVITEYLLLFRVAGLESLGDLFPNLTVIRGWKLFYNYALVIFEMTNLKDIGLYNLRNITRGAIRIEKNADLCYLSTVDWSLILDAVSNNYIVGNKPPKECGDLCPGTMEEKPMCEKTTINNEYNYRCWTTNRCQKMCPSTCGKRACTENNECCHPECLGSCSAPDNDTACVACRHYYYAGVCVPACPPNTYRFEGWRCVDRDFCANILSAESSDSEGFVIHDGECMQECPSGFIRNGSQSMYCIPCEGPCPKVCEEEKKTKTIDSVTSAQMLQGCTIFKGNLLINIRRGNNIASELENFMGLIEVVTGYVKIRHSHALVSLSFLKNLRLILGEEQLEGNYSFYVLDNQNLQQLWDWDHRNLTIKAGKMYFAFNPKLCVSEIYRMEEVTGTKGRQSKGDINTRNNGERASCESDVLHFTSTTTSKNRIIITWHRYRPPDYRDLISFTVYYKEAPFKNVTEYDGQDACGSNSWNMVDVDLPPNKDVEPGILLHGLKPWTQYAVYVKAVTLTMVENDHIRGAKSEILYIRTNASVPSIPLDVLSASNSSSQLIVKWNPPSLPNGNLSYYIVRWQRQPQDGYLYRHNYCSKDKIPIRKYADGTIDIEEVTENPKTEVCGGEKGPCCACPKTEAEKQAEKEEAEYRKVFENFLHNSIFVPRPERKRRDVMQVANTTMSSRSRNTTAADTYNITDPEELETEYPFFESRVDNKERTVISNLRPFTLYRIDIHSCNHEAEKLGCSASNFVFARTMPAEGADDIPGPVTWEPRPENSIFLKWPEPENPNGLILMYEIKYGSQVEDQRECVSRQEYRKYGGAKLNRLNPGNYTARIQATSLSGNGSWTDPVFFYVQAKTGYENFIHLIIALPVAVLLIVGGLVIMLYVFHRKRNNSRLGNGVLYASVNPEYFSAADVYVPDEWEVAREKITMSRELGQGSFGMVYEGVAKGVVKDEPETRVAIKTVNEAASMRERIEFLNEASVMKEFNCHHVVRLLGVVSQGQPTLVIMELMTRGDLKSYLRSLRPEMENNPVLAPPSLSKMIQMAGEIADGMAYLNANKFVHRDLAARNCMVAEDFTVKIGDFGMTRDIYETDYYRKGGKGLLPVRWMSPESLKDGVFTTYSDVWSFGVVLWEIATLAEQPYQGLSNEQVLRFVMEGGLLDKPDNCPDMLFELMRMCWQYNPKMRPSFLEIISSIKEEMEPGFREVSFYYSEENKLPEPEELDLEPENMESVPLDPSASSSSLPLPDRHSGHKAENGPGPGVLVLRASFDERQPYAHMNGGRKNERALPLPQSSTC
As to the kind of experiment: Enzyme assay (c), IGFR kinase, Caliper LabChip. The format is biochemical. As to conditions: 30 nM IGFR kinase, 6 uM ATP, 3 uM peptide mix; read-out: IGFR IC50.
Consider `COc1cc(C2CCN(C(=O)CO)CC2)ccc1Nc1ncc(C#N)c(-c2cnn3ccccc23)n1` [Example 240, 2-[4-[1-(2-hydroxyacetyl)-4-piperidyl]-2-methoxy-anilino]-4-pyrazolo[1,5-a]pyridin-3-yl-pyrimidine-5-carbonitrile], for which the pIC50 (as a rule, the negative decadic logarithm of the IC50, by convention in mol/L) is 8.52.
Consider `COc1cc(N2C[C@@H]3C[C@H]2CN3C(C)=O)ccc1Nc1ncc(Cl)c(-c2cnn3ccccc23)n1` [Example 241, 1-[(1S,4S)-2-[4-[(5-chloro-4-pyrazolo[1,5-a]pyridin-3-yl-pyrimidin-2-yl)amino]-3-methoxy-phenyl]-2,5-diazabicyclo[2.2.1]heptan-5-yl]ethanone], for which the pIC50 was 7.44.
Take `COc1cc(N2CC3CN(C(CO)CO)CC(C2)O3)ccc1Nc1ncc(Cl)c(-c2cnn3ccccc23)n1` [Example 242, 2-[7-[4-[(5-chloro-4-pyrazolo[1,5-a]pyridin-3-yl-pyrimidin-2-yl)amino]-3-methoxy-phenyl]-9-oxa-3,7-diazabicyclo[3.3.1]nonan-3-yl]propane-1,3-diol]: the pIC50 is 6.13.
As to `COc1cc(C2CCN(C(=O)CO)CC2)ccc1Nc1ncc(Cl)c(-c2cnc3ccc(F)cn23)n1` [Example 244, 1-[4-[4-[[5-chloro-4-(6-fluoroimidazo[1,2-a]pyridin-3-yl)pyrimidin-2-yl]amino]-3-methoxy-phenyl]-1-piperidyl]-2-hydroxy-ethanone], the pIC50 is 8.30.
On to `COc1cc(C2CCN(C(=O)CO)CC2)ccc1Nc1ncc(Cl)c(-c2cnc3cc(C)ccn23)n1` [Example 245, 1-[4-[4-[[5-chloro-4-(7-methylimidazo[1,2-a]pyridin-3-yl)pyrimidin-2-yl]amino]-3-methoxy-phenyl]-1-piperidyl]-2-hydroxy-ethanone], for which the pIC50 was 8.40.
`COc1cc(C2CCN(C(=O)[C@@H](C)O)CC2)ccc1Nc1ncc(Cl)c(-c2cnc3ccc(F)cn23)n1` [Example 246, (2R)-1-[4-[4-[[5-chloro-4-(6-fluoroimidazo[1,2-a]pyridin-3-yl)pyrimidin-2-yl]amino]-3-methoxyphenyl]-1-piperidyl]-2-hydroxy-propan-1-one]: the pIC50 is 8.40.
Consider `COc1cc(C2CCNCC2)ccc1Nc1ncc(Cl)c(-c2cnc3ccc(F)cn23)n1` [Example 247, 5-chloro-4-(6-fluoroimidazo[1,2-a]pyridin-3-yl)-N-[2-methoxy-4-(4-piperidyl)phenyl]pyrimidin-2-amine], for which the pIC50 was 8.52.
Take `CNCC(=O)N1CCN(c2ccc(Nc3ncc(Cl)c(-c4cnc5c(F)cc(F)cn45)n3)c(OC)c2)CC1` [Example 248, 1-[4-[4-[[5-chloro-4-(6,8-difluoroimidazo[1,2-a]pyridin-3-yl)pyrimidin-2-yl]amino]-3-methoxy-phenyl]piperazin-1-yl]-2-(methylamino)ethanone]: the pIC50 was 8.22.
Regarding `COc1cc(N2CCN(C(=O)CO)CC2)ccc1Nc1ncc(Cl)c(-c2cnc3ccc(F)cn23)n1` [Example 249, 1-[4-[4-[[5-chloro-4-(6-fluoroimidazo[1,2-a]pyridin-3-yl)pyrimidin-2-yl]amino]-3-methoxy-phenyl]piperazin-1-yl]-2-hydroxy-ethanone], the pIC50 was 8.30.
For the compound `COc1cc(N2CCN(C(=O)CO)CC2)ccc1Nc1ncc(Cl)c(-c2cnc3c(F)cc(F)cn23)n1` [Example 250, 1-[4-[4-[[5-chloro-4-(6,8-difluoroimidazo[1,2-a]pyridin-3-yl)pyrimidin-2-yl]amino]-3-methoxy-phenyl]piperazin-1-yl]-2-hydroxy-ethanone], the pIC50 was 8.15.
As to `COc1cc(N2CCN(C(=O)CO)CC2)ccc1Nc1ncc(Cl)c(-c2cnc3cc(C)ccn23)n1` [Example 251, 1-[4-[4-[[5-chloro-4-(7-methylimidazo[1,2-a]pyridin-3-yl)pyrimidin-2-yl]amino]-3-methoxy-phenyl]piperazin-1-yl]-2-hydroxy-ethanone], the pIC50 is 8.05.
On to `COc1cc(N2CCN(C(=O)[C@@H](C)N)CC2)ccc1Nc1ncc(Cl)c(-c2cnc3ccc(F)cn23)n1` [Example 252, (2R)-2-amino-1-[4-[4-[[5-chloro-4-(6-fluoroimidazo[1,2-a]pyridin-3-yl)pyrimidin-2-yl]amino]-3-methoxy-phenyl]piperazin-1-yl]propan-1-one], for which the pIC50 was 8.15.
As for `COc1cc(N2CCN(C(=O)[C@@H](C)N)CC2)ccc1Nc1ncc(Cl)c(-c2cnc3c(F)cc(F)cn23)n1` [Example 253, (2R)-2-amino-1-[4-[4-[[5-chloro-4-(6,8-difluoroimidazo[1,2-a]pyridin-3-yl)pyrimidin-2-yl]amino]-3-methoxy-phenyl]piperazin-1-yl]propan-1-one], the pIC50 is 8.40.
In the case of `COc1cc(N2CCN(C(=O)[C@@H](C)N)CC2)ccc1Nc1ncc(Cl)c(-c2cnc3cc(C)ccn23)n1` [Example 254, (2R)-2-amino-1-[4-[4-[[5-chloro-4-(7-methylimidazo[1,2-a]pyridin-3-yl)pyrimidin-2-yl]amino]-3-methoxy-phenyl]piperazin-1-yl]propan-1-one] it was 8.30.
Consider `COc1cc(N2CCN(C(=O)[C@@H](C)O)CC2)ccc1Nc1ncc(Cl)c(-c2cnc3ccc(F)cn23)n1` [Example 255, (2R)-1-[4-[4-[[5-chloro-4-(6-fluoroimidazo[1,2-a]pyridin-3-yl)pyrimidin-2-yl]amino]-3-methoxy-phenyl]piperazin-1-yl]-2-hydroxy-propan-1-one], for which the pIC50 was 8.30.
Regarding `COc1cc(N2CCN(C(=O)[C@@H](C)O)CC2)ccc1Nc1ncc(Cl)c(-c2cnc3c(F)cc(F)cn23)n1` [Example 256, (2R)-1-[4-[4-[[5-chloro-4-(6,8-difluoroimidazo[1,2-a]pyridin-3-yl)pyrimidin-2-yl]amino]-3-methoxy-phenyl]piperazin-1-yl]-2-hydroxy-propan-1-one], the pIC50 was 8.30.
`COc1cc(N2CCN(C(=O)[C@@H](C)O)CC2)ccc1Nc1ncc(Cl)c(-c2cnc3cc(C)ccn23)n1` [Example 257, (2R)-1-[4-[4-[[5-chloro-4-(7-methylimidazo[1,2-a]pyridin-3-yl)pyrimidin-2-yl]amino]-3-methoxy-phenyl]piperazin-1-yl]-2-hydroxy-propan-1-one]: the pIC50 is 8.00.
Turning to `COc1cc(N2CCN(C(=O)[C@H](C)N)CC2)ccc1Nc1ncc(Cl)c(-c2cnc3cc(C)ccn23)n1` [Example 258, (2S)-2-amino-1-[4-[4-[[5-chloro-4-(7-methylimidazo[1,2-a]pyridin-3-yl)pyrimidin-2-yl]amino]-3-methoxy-phenyl]piperazin-1-yl]propan-1-one], the pIC50 was 8.30.
Regarding `COc1cc(N2CCN(C(C)(C)CO)CC2)ccc1Nc1ncc(Cl)c(-c2cnc3ccc(F)cn23)n1` [Example 259, 2-[4-[4-[[5-chloro-4-(6-fluoroimidazo[1,2-a]pyridin-3-yl)pyrimidin-2-yl]amino]-3-methoxy-phenyl]piperazin-1-yl]-2-methyl-propan-1-ol], the pIC50 was 8.40.
The value for `COc1cc(N2CCN(C(C)(C)CO)CC2)ccc1Nc1ncc(C)c(-c2cnc3ccc(F)cn23)n1` [Example 260, 2-[4-[4-[[4-(6-fluoroimidazo[1,2-a]pyridin-3-yl)-5-methyl-pyrimidin-2-yl]amino]-3-methoxy-phenyl]piperazin-1-yl]-2-methyl-propan-1-ol] was 7.96; that for `COc1cc(N2CCN(C(C)(C)CO)CC2)ccc1Nc1ncc(F)c(-c2cnc3ccc(F)cn23)n1` [Example 261, 2-[4-[4-[[5-fluoro-4-(6-fluoroimidazo[1,2-a]pyridin-3-yl)pyrimidin-2-yl]amino]-3-methoxy-phenyl]piperazin-1-yl]-2-methyl-propan-1-ol] was 7.64.
As to `COc1cc(N2CCN(C(C)(C)CO)CC2)ccc1Nc1ncc(C)c(-c2cnc3cc(C)ccn23)n1` [Example 262, 2-[4-[3-methoxy-4-[[5-methyl-4-(7-methylimidazo[1,2-a]pyridin-3-yl)pyrimidin-2-yl]amino]phenyl]piperazin-1-yl]-2-methyl-propan-1-ol], the pIC50 was 7.41.
For `COc1cc(N2CCN(CCO)CC2)ccc1Nc1ncc(Cl)c(-c2cnc3ccc(F)cn23)n1` [Example 263, 2-[4-[4-[[5-chloro-4-(6-fluoroimidazo[1,2-a]pyridin-3-yl)pyrimidin-2-yl]amino]-3-methoxy-phenyl]piperazin-1-yl]ethanol], the pIC50 was 8.15.
In the case of `COc1cc(N2CCN(CCO)CC2)ccc1Nc1ncc(C)c(-c2cnc3ccc(F)cn23)n1` [Example 264, 2-[4-[4-[[4-(6-fluoroimidazo[1,2-a]pyridin-3-yl)-5-methyl-pyrimidin-2-yl]amino]-3-methoxy-phenyl]piperazin-1-yl]ethanol] it was 7.92.
For `COc1cc(N2CCNCC2)ccc1Nc1ncc(Cl)c(-c2cnc3c(F)cc(F)cn23)n1` [Example 265, 5-chloro-4-(6,8-difluoroimidazo[1,2-a]pyridin-3-yl)-N-(2-methoxy-4-piperazin-1-yl-phenyl)pyrimidin-2-amine], the pIC50 is 8.22.
Turning to `COc1cc(N2CCNCC2)ccc1Nc1ncc(Cl)c(-c2cnc3ccc(C#N)cn23)n1` [Example 266, 3-[5-chloro-2-(2-methoxy-4-piperazin-1-yl-anilino)pyrimidin-4-yl]imidazo[1,2-a]pyridine-6-carbonitrile], the pIC50 was 7.54.
On to `COc1cc(N2CCN(C[C@@H](O)CO)CC2)ccc1Nc1ncc(C)c(-c2cnc3ccccn23)n1` [Example 267, (2R)-3-[4-[4-[(4-imidazo[1,2-a]pyridin-3-yl-5-methyl-pyrimidin-2-yl)amino]-3-methoxy-phenyl]piperazin-1-yl]propane-1,2-diol], for which the pIC50 was 7.57.
`COc1cc(N2CCN(C[C@H](O)CO)CC2)ccc1Nc1ncc(C)c(-c2cnc3ccccn23)n1` [Example 268, (2S)-3-[4-[4-[(4-imidazo[1,2-a]pyridin-3-yl-5-methyl-pyrimidin-2-yl)amino]-3-methoxy-phenyl]piperazin-1-yl]propane-1,2-diol]: the pIC50 is 7.64.
With `COc1cc(N2CCN(C(CO)CO)CC2)ccc1Nc1ncc(C)c(-c2cnc3ccccn23)n1` [Example 269, 2-[4-[4-[(4-imidazo[1,2-a]pyridin-3-yl-5-methyl-pyrimidin-2-yl)amino]-3-methoxy-phenyl]piperazin-1-yl]propane-1,3-diol], the pIC50 is 7.80.
